In publication PMC11284787, “Ligand-Directed Labeling of the Adenosine A1 Receptor in Living Cells” (Journal of Medicinal Chemistry, 2024):
Read-outs that look alike come from different tables or passages of the source.

Target: T1, NL-rA1AR (Rattus norvegicus, UniProt P25099)
T1 construct: expressed in transfected cells
T1 sequence (P25099 1-326): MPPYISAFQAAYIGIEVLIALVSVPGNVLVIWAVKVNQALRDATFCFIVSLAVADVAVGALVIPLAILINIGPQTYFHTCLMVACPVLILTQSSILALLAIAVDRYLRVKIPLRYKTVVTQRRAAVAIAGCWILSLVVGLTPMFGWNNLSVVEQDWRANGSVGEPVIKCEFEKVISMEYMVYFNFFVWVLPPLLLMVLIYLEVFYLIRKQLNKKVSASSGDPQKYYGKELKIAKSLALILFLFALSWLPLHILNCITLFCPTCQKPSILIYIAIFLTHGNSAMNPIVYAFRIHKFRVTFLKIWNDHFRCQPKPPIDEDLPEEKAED
Test: NanoBRET saturation ligand-binding assay, NL-rA1AR
Experimental: The ligand-binding properties of the newly synthesized probes were assessed in a series of pharmacological assays. Initially, a NanoBRET[47],[48] saturation binding experiment was used to evaluate the binding affinity of ligand-directed probes functionally labeled with the SulfoCy5 fluorophore (11) to the NanoLuc(NL)-tagged[49] hA1AR expressed in HEK293T cells.
NanoBRET binding assay. All NanoBRET experiments were performed in white flat […]
37 °C for kinetic binding experiments. Emissions were read at 420 nm (80 nm bandpass; […]
the SulfoCy5-labelled probe. […]
nm emission by the 420 nm emission. The term “raw BRET ratio” refers to the unprocessed data as no background ratio has been subtracted. In all NanoBRET binding […]
competitive antagonist selective for the adenosine receptor under investigation […]
MRS1220 for the A3AR). HEK293T cells stably/transiently expressing Nluc-AR were […]
were incubated for 1 h at 37 °C. […]
NanoBRET saturation binding assay. Total and nonspecific saturation binding curves were fit simultaneously using the following equation: […]

In the case of `CCCCn1c(=O)c2[nH]c(C34CCC(C(=O)NCCNC(=O)CCNC(=O)c5ccc(OC(=O)CCCCC[N+]6=C(/C=C/C=C/C=C7/N(C)c8ccc(S(=O)(=O)O)cc8C7(C)C)C(C)(C)c7cc(S(=O)(=O)[O-])ccc76)c(F)c5)(CC3)CC4)nc2n(CCCC)c1=O` [Compound 11, 1-(6-(4-((3-((2-(4-(1,3-Dibutyl-2,6-dioxo-2,3,6,7-tetrahydro-1H-purin-8-yl)bicyclo[2.2.2]octane-1-carboxamido)ethyl)amino)-3-oxopropyl)carbamoyl)-2-fluorophenoxy)-6-oxohexyl)-3,3-dimethyl-2-((1E,3E)-5-((E)-1,3,3-trimethyl-5-sulfoindolin-2-ylidene)penta-1,3-dien-1-yl)-3H-indol-1-ium-5-sulfonate], the Kd (HEK293T cells stably expressing rat NanoLuc-A1AR, mean ± SEM, read-out: affinity values pKD, NL-rA1AR (converted)) is reported as 9.12 nM and the Kd (supplementary CSV, read-out: AFFINITY (A1AR_rat) pKD (converted)) is reported as 10.2 nM.
